Measured values: patent US8338422B2, “Indolin-2-ones and aza-indolin-2-ones” (Janssen Pharmaceutica NV, priority 2007, dated 2012)

How the values were obtained:
H460 = test: Cellular proliferation assay (Alamar blue), H460; format: cell-based; conditions: 72 hours with compound, 10% FCS; for IC50: Homo sapiens, NCI-H460, H460 cells, read-out: pIC50 H460 (converted); for pIC50 H460: H460 cells
Experimental: (§1) […] functional properties of these compounds was tested in cellular proliferation assays on a panel of different cell lines in the presence of 10% FCS serum (37° C. and 5% (v/v) CO2). In a first step these cells were seeded and incubated for 24 hours in the absence of compound. In the second step the cells were incubated for 72 hours with the compounds to be tested for 72 hours. The viable cell number was finally assessed in a standard Alamar blue cell viability assay.
(§2) The viable cell number was assessed by incubation for either 4 h (HCT-116, H1299, H460) 6 h (SKOV3, HT29, U87-MG, Colo205) or 24 h (A2780, PC3, MDA-MB-231, A549, MCF-7) with Alamar blue (Resazurin 9 μg/ml, K-Ferrocyanide 90 μM K-Ferricyanide 90 μM) and the converted fluorescent product was quantified on a fluorescent plate readed (544 nm/590 nm). Effect of the compounds is calculated as of on control cells.

A2780 = test: Cellular proliferation assay (Alamar blue), A2780; format: cell-based; conditions: Homo sapiens, A2780, 72 h, A2780 cells, 72 hours with compound, 10% FCS, read-out: pIC50 A2780 (converted)
Procedure, shortened: (§3)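 Proliferation was assessed over 72 h of compound treatment, following 24 h of seeding without compound, under 10% FCS, 37° C. and 5% CO2. Fluorescent resazurin product was measured and compared with control cells.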

PLK4 (h) = PLK4 (h) (Homo sapiens, UniProt O00444); test: PLK-4 human kinase assay (SPA); format: biochemical; conditions: for IC50: read-out: PLK4 pIC50 (converted)
Chain of PLK4 (h) (O00444 whole entry): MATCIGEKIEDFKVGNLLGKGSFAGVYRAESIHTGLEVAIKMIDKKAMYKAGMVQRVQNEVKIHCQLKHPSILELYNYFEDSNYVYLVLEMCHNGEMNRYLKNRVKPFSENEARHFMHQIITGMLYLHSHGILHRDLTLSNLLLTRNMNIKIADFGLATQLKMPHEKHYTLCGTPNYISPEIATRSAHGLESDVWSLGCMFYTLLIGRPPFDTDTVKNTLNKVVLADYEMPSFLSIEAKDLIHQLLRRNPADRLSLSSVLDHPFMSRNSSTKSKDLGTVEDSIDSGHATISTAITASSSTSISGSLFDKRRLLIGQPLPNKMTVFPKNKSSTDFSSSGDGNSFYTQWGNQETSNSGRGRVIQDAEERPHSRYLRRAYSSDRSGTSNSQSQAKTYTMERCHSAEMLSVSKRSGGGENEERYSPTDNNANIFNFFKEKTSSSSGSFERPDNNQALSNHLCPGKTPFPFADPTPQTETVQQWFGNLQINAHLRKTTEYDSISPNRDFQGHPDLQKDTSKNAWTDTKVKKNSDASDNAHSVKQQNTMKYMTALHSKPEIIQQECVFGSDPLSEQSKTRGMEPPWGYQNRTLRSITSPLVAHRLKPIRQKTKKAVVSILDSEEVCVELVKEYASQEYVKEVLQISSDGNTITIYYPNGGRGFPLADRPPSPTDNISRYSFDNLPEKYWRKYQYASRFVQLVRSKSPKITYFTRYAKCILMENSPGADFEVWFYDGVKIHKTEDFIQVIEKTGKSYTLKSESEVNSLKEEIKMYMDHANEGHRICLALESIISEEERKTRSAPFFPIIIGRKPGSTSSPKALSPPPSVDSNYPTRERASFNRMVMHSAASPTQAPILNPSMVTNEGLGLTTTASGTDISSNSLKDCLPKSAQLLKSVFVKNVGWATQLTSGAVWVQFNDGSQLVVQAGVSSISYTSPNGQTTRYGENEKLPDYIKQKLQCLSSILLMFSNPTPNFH
Procedure, shortened: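 Radiometric readout: 33P-labelled peptide captured on streptavidin SPA beads after EDTA stop, imaged by Leadseeker. Reaction ran 60 min at room temperature in Hepes pH 8.0 buffer. It contained 1 μM ATP with 2 nM [γ-33P]ATP, 10 μM biotinylated peptide and PLK4 (h) at 19 μg/ml.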

A549 = test: Cellular proliferation assay (Alamar blue), A549; format: cell-based; conditions: A549 cells, 72 hours with compound, 10% FCS; for IC50: Homo sapiens, read-out: pIC50 A549 (converted)
Experimental: as §1, §2

DU-145 = test: Cellular proliferation assay (Alamar blue), DU-145; format: cell-based; conditions: DU-145 cells, 72 hours with compound, 10% FCS; for IC50: Homo sapiens, read-out: pIC50 DU-145 (converted)
Experimental: as §1, §2

MCF-7 = test: Cellular proliferation assay (Alamar blue), MCF-7; format: cell-based; conditions: 72 hours with compound, 10% FCS; for IC50: Homo sapiens, MCF7, MCF-7 cells, read-out: pIC50 MCF-7 (converted); for pIC50 MCF-7: MCF-7 cells
Experimental: as §1, §2

HT-29 = test: Cellular proliferation assay (Alamar blue), HT-29; format: cell-based; conditions: HT-29 cells, 72 hours with compound, 10% FCS; for IC50: Homo sapiens, read-out: pIC50 HT-29 (converted)
Experimental: as §1, §2

SK-N-SH = test: Cellular proliferation assay (Alamar blue), SK-N-SH; format: cell-based; conditions: SK-N-SH cells, 72 hours with compound, 10% FCS; for IC50: Homo sapiens, read-out: pIC50 SK-N-SH (converted)
Experimental: as §1, §2

Colo205 = test: Cellular proliferation assay (Alamar blue), Colo205; format: cell-based; conditions: 72 hours with compound, 10% FCS; for IC50: Homo sapiens, COLO 205, Colo205 cells, read-out: pIC50 Colo205 (converted); for pIC50 Colo205: Colo205 cells
Experimental: as §1, §2

A431 = test: Cellular proliferation assay (Alamar blue), A431; format: cell-based; conditions: 72 hours with compound, 10% FCS; for IC50: Homo sapiens, A-431, A431 cells, read-out: pIC50 A431 (converted); for pIC50 A431: A431 cells
Experimental: as §1, §2

AuroraB (h) = AuroraB (h) (Homo sapiens, UniProt Q96GD4); test: Aurora-B human kinase assay (SPA); format: biochemical; conditions: for IC50: read-out: AuroraB pIC50 (converted)
Chain of AuroraB (h) (Q96GD4 whole entry): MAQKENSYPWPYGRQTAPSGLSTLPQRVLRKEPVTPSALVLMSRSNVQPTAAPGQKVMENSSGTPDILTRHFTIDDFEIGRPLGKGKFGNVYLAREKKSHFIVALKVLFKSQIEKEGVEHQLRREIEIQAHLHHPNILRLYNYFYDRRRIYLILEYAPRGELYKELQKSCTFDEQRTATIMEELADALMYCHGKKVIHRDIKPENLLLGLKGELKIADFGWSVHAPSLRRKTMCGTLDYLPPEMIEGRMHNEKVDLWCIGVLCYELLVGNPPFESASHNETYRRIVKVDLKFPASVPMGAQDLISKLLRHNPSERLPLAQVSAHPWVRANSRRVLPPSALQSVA
Procedure, shortened: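 Scintillation proximity assay: AuroraB (h) at 0.5 μg/ml with 3 μM biotinylated peptide, 0.5 μM ATP and 2.2 nM [γ-33P]ATP in 60 mM Hepes pH 7.5, 3 mM MgCl2, 3 mM MnCl2, 2 mM DTT. 60 min at room temperature, EDTA stop, streptavidin PVT beads read on Leadseeker.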

HCT-116 = test: Cellular proliferation assay (Alamar blue), HCT-116; format: cell-based; conditions: Homo sapiens, HCT-116, 72 h, HCT-116 cells, 72 hours with compound, 10% FCS, read-out: pIC50 HCT-116 (converted)
Procedure, shortened: as §3

U87MG = test: Cellular proliferation assay (Alamar blue), U87MG; format: cell-based; conditions: Homo sapiens, U-87 MG, 72 h, U87MG cells, 72 hours with compound, 10% FCS, read-out: pIC50 U87MG (converted)
Procedure, shortened: as §3

PC-3 = test: Cellular proliferation assay (Alamar blue), PC-3; format: cell-based; conditions: PC-3 cells, 72 hours with compound, 10% FCS; for IC50: Homo sapiens, PC-3, 72 h, read-out: pIC50 PC-3 (converted)
Procedure, shortened: as §3

SKOV3 = test: Cellular proliferation assay (Alamar blue), SKOV3; format: cell-based; conditions: 72 hours with compound, 10% FCS; for IC50: Homo sapiens, SK-OV-3, SKOV3 cells, read-out: pIC50 SKOV3 (converted); for pIC50 SKOV3: SKOV3 cells
Experimental: as §1, §2

MDA/MB231 = test: Cellular proliferation assay (Alamar blue), MDA/MB231; format: cell-based; conditions: Homo sapiens, MDA-MB-231, 72 h, MDA/MB231 cells, 72 hours with compound, 10% FCS, read-out: pIC50 MDA/MB231 (converted)
Procedure, shortened: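 Cells in 10% FCS were seeded and left 24 h without compound, then treated for 72 h at 37° C. Viability read with Alamar blue (resazurin 9 μg/ml, ferro-/ferricyanide 90 μM each), incubated 4 h for H460 and 24 h for MDA-MB-231; fluorescence 544/590 nm, effect relative to control cells.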

CDK1/CyclinB (h) = CDK1/CyclinB (h) (Homo sapiens, UniProt P06493); test: CDK1/CyclinB human kinase assay (FRET); format: biochemical
Chain of CDK1/CyclinB (h) (P06493 whole entry): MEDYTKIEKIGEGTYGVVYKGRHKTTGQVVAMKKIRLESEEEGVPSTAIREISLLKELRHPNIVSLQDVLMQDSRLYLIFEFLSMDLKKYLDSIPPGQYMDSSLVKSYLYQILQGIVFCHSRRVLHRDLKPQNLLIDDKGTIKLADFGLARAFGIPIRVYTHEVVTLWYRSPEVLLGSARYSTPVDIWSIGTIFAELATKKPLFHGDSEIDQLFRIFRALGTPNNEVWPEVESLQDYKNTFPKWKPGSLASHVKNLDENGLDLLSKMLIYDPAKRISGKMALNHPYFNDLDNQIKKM
Chain of CDK1/CyclinB (h) (P14635 whole entry partner): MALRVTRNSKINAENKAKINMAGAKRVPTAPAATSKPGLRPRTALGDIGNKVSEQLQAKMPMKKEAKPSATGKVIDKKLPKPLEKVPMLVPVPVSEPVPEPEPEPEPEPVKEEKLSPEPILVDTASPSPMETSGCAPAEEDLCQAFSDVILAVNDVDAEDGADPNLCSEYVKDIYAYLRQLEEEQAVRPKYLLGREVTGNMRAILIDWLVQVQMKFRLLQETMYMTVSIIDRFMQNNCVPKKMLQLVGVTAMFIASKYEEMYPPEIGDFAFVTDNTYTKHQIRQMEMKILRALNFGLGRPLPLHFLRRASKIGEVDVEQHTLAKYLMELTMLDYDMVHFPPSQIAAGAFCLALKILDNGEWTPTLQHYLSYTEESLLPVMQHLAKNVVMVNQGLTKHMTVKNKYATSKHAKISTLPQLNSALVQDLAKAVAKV
Procedure, shortened: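 Z'-LYTE FRET format: 0.2 μg/ml enzyme with 2 μM Ser/Thr peptide 12 and 10 μM ATP in 50 mM Hepes pH 7.5, 10 mM MgCl2, 1 mM EGTA, 0.01% Brij-35, 60 min at room temperature. Protease development 60 min; coumarin/fluorescein emission ratio (460/538 nm, excitation 390 nm) reports phosphorylation.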

GSK3β (h) = GSK3β (h) (Homo sapiens, UniProt P49841); test: GSK-3β human kinase assay (SPA); format: biochemical
Chain of GSK3β (h) (P49841 whole entry): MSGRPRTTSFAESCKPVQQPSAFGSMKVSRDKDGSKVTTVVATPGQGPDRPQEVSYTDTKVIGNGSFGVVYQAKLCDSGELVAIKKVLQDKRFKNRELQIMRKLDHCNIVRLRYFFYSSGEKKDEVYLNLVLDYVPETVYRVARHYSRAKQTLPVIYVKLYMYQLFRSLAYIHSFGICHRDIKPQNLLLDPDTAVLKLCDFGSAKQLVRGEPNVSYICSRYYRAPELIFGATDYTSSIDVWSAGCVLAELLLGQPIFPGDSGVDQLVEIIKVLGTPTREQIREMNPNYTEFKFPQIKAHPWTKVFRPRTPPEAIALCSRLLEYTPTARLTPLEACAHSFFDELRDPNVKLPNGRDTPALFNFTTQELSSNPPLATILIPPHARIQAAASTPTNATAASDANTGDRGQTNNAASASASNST
Procedure, shortened: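 Radiometric SPA read-out: after EDTA stop, biotinylated 33P-labelled peptide bound streptavidin PVT beads and was imaged on Leadseeker. Reaction: 60 min, room temperature, GSK3β (h) at 1 μg/ml, 1 μM substrate peptide, 1 μM ATP with 2 nM [γ-33P]ATP, Tris pH 7.4/MgCl2/DTT buffer.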

| SMILES | IC50 (H460) [µM] | IC50 (A2780) [µM] | IC50 (PLK4 (h)) [µM] | IC50 (A549) [µM] | IC50 (DU-145) [µM] | IC50 (MCF-7) [µM] | IC50 (HT-29) [µM] | IC50 (SK-N-SH) [µM] | IC50 (Colo205) [µM] | IC50 (A431) [µM] | IC50 (AuroraB (h)) [µM] | IC50 (HCT-116) [µM] | IC50 (U87MG) [µM] | IC50 (PC-3) [µM] | IC50 (SKOV3) [µM] | IC50 (MDA/MB231) [µM] | other results |
| --- | --- | --- | --- | --- | --- | --- | --- | --- | --- | --- | --- | --- | --- | --- | --- | --- | --- |
| O=C1Nc2ncnc3c2C1=CNc1ccc(cc1)S(=O)(=O)NCCCCC(=O)N1CCN3CC1 (mixture of isomers) [Compound 15] | > 10 | > 10 | 5.5 | > 10 | > 10 | > 10 | > 10 | > 10 | > 10 | > 10 | > 10 | > 10 | > 10 | > 10 | > 10 | > 10 | – |
| COc1ccc2cc1OCCCC(=O)N(C)CCN(C)C1CCN(CC1)c1ncnc3c1/C(=C/N2)C(=O)N3 [Compound 34] | – | – | > 10 | > 10 | > 10 | > 10 | ~8.32 | 5.25 | > 10 | – | – | – | – | – | > 10 | – | – |
| O=C1Nc2ncnc3c2C1=CNc1cc(ccc1Cl)OCCCCC(=O)N1CCN3CC1 (mixture of isomers) [Compound 13] | > 10 | > 10 | > 10 | > 10 | > 10 | > 10 | > 10 | > 10 | > 10 | > 10 | > 10 | > 10 | > 10 | > 10 | > 10 | > 10 | – |
| CC(C)N1CCCCCC(=O)N2CCN(CC2)c2ncnc3c2/C(=C/Nc2ccc(F)c(c2)C1)C(=O)N3 [Compound 28] | > 10 | – | > 10 | > 10 | > 10 | > 10 | > 10 | > 10 | > 10 | > 10 | > 10 | – | – | > 10 | > 10 | – | IC50 (CDK1/CyclinB (h); read-out: CDK1 pIC50 (converted)): > 10 µM; IC50 (GSK3β (h); read-out: GSK3B pIC50 (converted)): > 10 µM |
| CN1CCCCCC(=O)N2CCN(CC2)c2ncnc3c2/C(=C/Nc2cccc(c2)C1)C(=O)N3 [Compound 24] | > 10 | > 10 | 1.51 | > 10 | > 10 | > 10 | > 10 | > 10 | > 10 | > 10 | > 10 | > 10 | > 10 | > 10 | > 10 | > 10 | – |
| CC(C)N1CCCC(=O)N2CCN(CC2)c2ncnc3c2C(=CNc2ccc(F)c(c2)C1)C(=O)N3 (mixture of isomers) [Compound 30] | – | – | – | – | – | – | – | – | – | – | – | – | – | – | – | – | pIC50 H460 (H460): <5; PLK4 pIC50 (PLK4 (h)): <5; pIC50 A549 (A549): <5; pIC50 DU-145 (DU-145): <5; pIC50 MCF-7 (MCF-7): <5; pIC50 HT-29 (HT-29): <5; pIC50 SK-N-SH (SK-N-SH): <5; pIC50 Colo205 (Colo205): <5; pIC50 A431 (A431): <5; pIC50 PC-3 (PC-3): <5; pIC50 SKOV3 (SKOV3): <5 |
| COc1ccc2cc1OCCCC(=O)N(C(C)C)CCN(C)c1ncnc3c1/C(=C/N2)C(=O)N3 [Compound 32] | 2.34 | – | 1.05 | 2.14 | 3.98 | 1.58 | 2.51 | 1.62 | 2.04 | 1.32 | – | – | – | 1 | 3.31 | – | – |
| COc1ccc2cc1OCCCC(=O)N(C(C)C)CCCCN(C)c1ncnc3c1C(=CN2)C(=O)N3 (mixture of isomers) [Compound 33] | – | – | – | – | – | – | – | – | – | – | – | – | – | – | – | – | pIC50 H460 (H460): <5; PLK4 pIC50 (PLK4 (h)): 5.27; pIC50 A549 (A549): <5; pIC50 DU-145 (DU-145): <5; CDK1 pIC50 (CDK1/CyclinB (h)): 5.14; pIC50 MCF-7 (MCF-7): 4.99; pIC50 HT-29 (HT-29): <5; GSK3B pIC50 (GSK3β (h)): 5.33; pIC50 SK-N-SH (SK-N-SH): 5.27; pIC50 Colo205 (Colo205): <5; pIC50 A431 (A431): <5; AuroraB pIC50 (AuroraB (h)): 5; pIC50 PC-3 (PC-3): <5; pIC50 SKOV3 (SKOV3): <5 |
